# Where “and” joins values, the source holds several entries; their conditions need not be identical. Equal entries are not always repeated.
# Columns and labels:
# [1] = system: 6-OHDA-treated Neuro-2a cells; experiment: 6-OHDA-induced neurotoxicity model, cell viability test (MTT); format: cell-based, murine; details: compounds at 10, 1, 0.1 µM; 6-OHDA 100 µM
# Protocol: Neuro-2a cells were incubated with the studied polyphenolic compounds for 1 h. Then, 100 µM of 6-hydroxydopamine 6-OHDA were added. We determined the percentage of living Neuro-2a cells after treatment with 6-OHDA (Figure 4a–d).
# Figure 4 The effect of polyphenolic compounds isolated from M. amurensis heartwood on the viability of Neuro-2a cells treated with 6-OHDA (100 μM) (a–d). The viability of Neuro-2a cells treated with various compounds and 6-OHDA was measured by the MTT assay. Polyphenolic compounds isolated from M. amurensis heartwood were used at concentrations 10, 1, 0.1 μM. The data are presented as means ± SEM of three independent replicates. (*) indicate p < 0.05 versus 6-OHDA-treated cells.
# After 24 h of adhesion, Neuro-2a cells (5 × 10^4 cells/mL) were treated with polyphenolic compounds at concentrations of 0.1, 1 and 10 μM for 1 h. Then, 100 µM of 6-OHDA or 1 mM of PQ (Sigma-Aldrich, St. Louis, MO, USA) were added. Cells incubated without inductors or with inductors were used as positive and negative control, respectively. Cell viability was measured after 24 h using the MTT assay.
# [2] = system: 6-OHDA-treated Neuro-2a cells; experiment: ROS analysis in 6-OHDA-treated cells (H2DCF-DA); format: cell-based, murine; details: compound 1 µM; 6-OHDA 120 µM
# Protocol: We studied the effect of polyphenolic compounds set on ROS levels in 6-OHDA-treated Neuro-2a cells (Figure 5a–d).
# Figure 5 The effect of polyphenolic compounds isolated from M. amurensis heartwood on ROS levels in Neuro-2a cells treated with 6-OHDA (120 μM) (a–d). Polyphenolic compounds isolated from M. amurensis heartwood were used at concentrations 10, 1, 0.1 μM. The data are presented as means ± SEM of three independent replicates.
# After 24 h of adhesion, Neuro-2a cells (5 × 10^4 cells/mL) were incubated with polyphenolic compounds at concentrations of 0.1, 1, and 10 µM for 1 h. Then, 120 µM of 6-OHDA or 1 mM of PQ were added to each well, and cells were incubated for 1 h. To study the ROS formation, 20 µL of 2,7-dichlorodihydrofluorescein diacetate solution (H2DCF-DA, Sigma-Aldrich, St. Louis, MO, USA) were added to each well, so that the final concentration was 10 µM. Then, the microplate was incubated for 30 min at 37 °C.
# [3] = Cytotoxicity against Vero cells (MTT assay); format: cell-based; details: African green monkey
# Protocol: We prepared the stock solutions of the tested compounds (10 mg/mL) in DMSO (Sigma, St. Louis, MO, USA). For the MTT assay and further studies of anti-HSV-1 activity, we diluted the stock solutions with DMEM so that the final concentration of DMSO was 0.5%.
# We used MTT assay to determine the cytotoxic effect of the tested compounds against Vero cells. We performed the MTT assay as previously described.
# HSV-1 [4] = experiment: Virucidal activity, CPE inhibition assay (HSV-1 pretreated with compounds); format: cell-based, HSV-1 strain L2
# Protocol: The antiviral activity of polyphenols from M. amurensis against HSV-1 was assessed using the cytopathic effect inhibition (CPE) assay. To study the inhibitory effect of polyphenolic compounds directly on the HSV-1 virus (direct virucidal activity), the monolayer of Vero cells grown on 96-well plates (1 × 10^4 cells/well) was infected with the virus (100 TCD50/mL), pretreated with different concentrations of polyphenolic compounds.
# (§1) The HSV-1 strain L2 obtained from N.F. Gamaleya Federal Research Centre for Epidemiology and Microbiology (Moscow, Russia) was grown in Vero cells as previously described.
# (§2) We determined the direct inhibitory effect of polyphenolic compounds from M. amurensis heartwood on HSV-1 (virucidal effect). We mixed the virus at an infectious dose (100 TCID50/mL) with polyphenolic compounds (from 0.1 to 100 µg/mL) at a ratio of 1:1 (v/v) and incubated for an hour at 37 °C. Then, we infected the monolayer of Vero cells grown on 96-well plates (1 × 10^4 cells/well) with HSV-1 pretreated with the studied compounds. After 1 h adsorption at 37 °C, the cells were washed with phosphate-buffered saline (PBS) and overlaid by the maintenance medium with 1% FBS. The plates were incubated for 72 h at 37 °C in a CO2-incubator. The cytopathic effect (CPE) inhibition assay and real-time reverse transcription-PCR (RT-PCR) assay were used to evaluate virucidal effect of the tested compounds.
# We previously described this method in detail in [22]. We performed the MTT assay to evaluate the antiviral activity of polyphenolic compounds. The viral inhibition rate (IR, %) was calculated according to Equation (1):(1) IR, %=Atv−Acv/Acd−Acv×100, where Atv is the absorbance of cells infected with HSV-1 pretreated with the studied compounds,
# We calculated the selectivity index (SI) as the ratio of CC50 to IC50. Experiments were repeated three times.
# HSV-1 [5] = experiment: Virucidal activity, RT-PCR assay (HSV-1 pretreated with compounds); format: cell-based, HSV-1 strain L2; details: for Ct: 72 h; for −ΔCt: vs virus control
# Protocol: Vero cells grown on 96-well plates were infected with the virus (100 TCID50/mL), pretreated with polyphenolic compounds at concentrations 0.1, 1 and 10 μg/mL. After 72 h of cell incubation, viral DNA was extracted from the supernatants, and the relative level of HSV-1 DNA was determined using RT-PCR. The effect of polyphenols on the relative level of viral DNA was assessed using the 2^−∆Ct method and reported as fold reduction compared to virus control.
# as §1, §2
# We performed the RT-PCR assay as we previously described in detail in [22]. Briefly, HSV-1 DNA was extracted after incubation from cell supernatants by using the DNA-sorb-AM (K1-12-100-CE) nucleic acid extraction kit (AmpliSens®, Moscow, Russia) according to the manufacturer′s instructions. We treated the supernatants with a lysis solution that contained guanidine chloride (chaotropic agent) in the presence of sorbent (silica particles). As the elution solution was added, the DNA was […] silica particles and separated from the sorbent particles by centrifugation.
# We detected the DNA of HSV-1 in the obtained samples using the AmpliSens® HSV I, II-FRT-100F PCR kit (AmpliSens®, Moscow, Russia) on a real-time PCR instrument Rotor-Gene Q (Qiagen, Hilden, Nordrhein-Westfalen, Germany) according to the manufacturer′s instructions. The PCR reaction conditions were the following: initial denaturation at 95 °C for 15 min; then 5 cycles at 95 °C for 5 s, at 60 °C for 20 s, at 72 °C for 15 s; then 40 cycles at 95 °C for 5 s, at 60 °C for 20 s, and at 72 °C for 15 s. A negative sample was used as the amplification control for each run. The threshold cycle number Ct, was measured as the PCR cycle, where the amount of the amplified target reached the threshold value; the Ct values ≥ 37 indicated the absence of the HSV-1 DNA in the samples. We assessed the anti-HSV-1 activity of the studied compounds by the reduction in the viral DNA levels using the 2^−ΔCt method according to Equation (2):(2) ΔCt=Ctcv−Cttv where Ct is the threshold cycle number measured as the PCR cycle, where the amount of the amplified target reached the threshold value, […]
# [6] = Human alphaherpesvirus 1, 72 h, read-out: 2^−ΔCt
# [7] = Human alphaherpesvirus 1, 72 h, read-out: log10
smiles,measurement,setting,value
"COc1ccc(-c2coc3c4c(ccc3c2=O)O[C@@H](c2cc(O)cc(O)c2)[C@H](c2ccc(O)c(O)c2)O4)cc1 [Compound 10, maackiazin]",effect on viability of 6-OHDA-treated Neuro-2a cells (in words),[1],weak effect on cell viability
same,reduction of ROS levels in 6-OHDA-treated Neuro-2a cells,[2],20%
same,CC50,[3],156 µg/mL and 297 µM
same,IC50,"HSV-1 [4]; Human alphaherpesvirus 1, virus pretreated with compound (virucidal), CPE assay, Vero cells, 100 TCID50/mL",6.6 µg/mL and 12.5 µM
same,SI,"HSV-1 [4]; ratio of CC50 to IC50, virucidal scheme",23.7 ± 3.1
same,Ct,HSV-1 [5]; 0.1 µg/mL,18.4 ± 2.4
same,−ΔCt,HSV-1 [5]; 0.1 µg/mL,−0.300 ± 0.03
same,Ct,HSV-1 [5]; 1 µg/mL,20.2 ± 2.6
same,−ΔCt,HSV-1 [5]; 1 µg/mL,−2.1 ± 0.3
same,anti-HSV-1 activity by RT-PCR (in words),HSV-1 [5]; 10 µg/mL,significantly reduced the level of viral DNA
same,Ct,HSV-1 [5]; 10 µg/mL,28.0 ± 3.9
same,−ΔCt,HSV-1 [5]; 10 µg/mL,−9.9 ± 1.1
same,activity at 0.1 µg/mL,HSV-1 [5]; [6],81.2 ± 11%
same,activity at 1 µg/mL,HSV-1 [5]; [6],23.3 ± 3%
same,activity at 10 µg/mL,HSV-1 [5]; [6],0.105 ± 0.01%
same,log reduction at 0.1 µg/mL,HSV-1 [5]; [7],0.09 ± 0.01
same,log reduction at 1 µg/mL,HSV-1 [5]; [7],0.6 ± 0.08
same,log reduction at 10 µg/mL,HSV-1 [5]; [7],2.9 ± 0.4
